Laboratory results published in publication PMC8587043, “An Investigation into the Interaction between Double Hydroxide-Based Antioxidant Benzophenone Derivatives and Cyclooxygenase 2” (Molecules, 2021).
Like-named read-outs stand apart in the source and are kept apart here.

Legend:
COX2 [1] = target: T1, COX2 (Homo sapiens, UniProt P35354); test: Fluorescence quenching of COX2 (Stern-Volmer, double logarithm, thermodynamic parameters); type: binding; conditions: for KA relative to the control compound: 298 K and 310 K; for Kq (bimolecular quenching constant): Kq = Ksv/τ0; for Kd: read-out: KA (binding constant) (converted); for ΔH (enthalpy change) / ΔS (entropy change): from KA at 298 K and 310 K
T1 construct: purchased Sino Biological Co. (Beijing, China)
T1 sequence (P35354 18-604): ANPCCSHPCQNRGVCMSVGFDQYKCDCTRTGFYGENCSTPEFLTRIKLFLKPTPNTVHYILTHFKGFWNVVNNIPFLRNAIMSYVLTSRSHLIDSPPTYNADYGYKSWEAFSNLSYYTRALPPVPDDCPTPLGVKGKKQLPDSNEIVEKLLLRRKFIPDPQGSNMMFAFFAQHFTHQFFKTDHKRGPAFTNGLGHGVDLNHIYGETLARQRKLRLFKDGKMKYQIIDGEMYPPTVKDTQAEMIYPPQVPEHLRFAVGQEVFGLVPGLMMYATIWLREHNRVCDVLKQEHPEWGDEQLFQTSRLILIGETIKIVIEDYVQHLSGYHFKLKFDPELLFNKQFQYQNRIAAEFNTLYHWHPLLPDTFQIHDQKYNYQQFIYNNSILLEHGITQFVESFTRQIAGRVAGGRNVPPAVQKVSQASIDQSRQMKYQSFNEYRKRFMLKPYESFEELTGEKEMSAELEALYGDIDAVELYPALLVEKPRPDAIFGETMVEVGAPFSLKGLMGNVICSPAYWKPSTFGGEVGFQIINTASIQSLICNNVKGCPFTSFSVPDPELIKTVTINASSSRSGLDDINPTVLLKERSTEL
Source text: The emitted fluorescence spectra of COX2 solution (6.0 × 10^−8 mol∙L^−1) without and with an increasing concentration of compounds DB2, SC2 or YB2 (7.5 × 10^−6 mol∙L^−1 to 4.5 × 10^−5 mol∙L^−1) at different temperatures are shown in Figure 4a,b, Figure 4c,d or Figure 4e,f, respectively. […] The quenching constant Kq and Stern–Volmer constant Ksv at different temperatures are usually used to identify the quenching mechanisms, static or dynamic. The former is caused by ground-state complex formation, the latter is diffusion. For the static quenching mechanism, the quenching constant decreases with temperature increase. In this part, we calculated the Kq and Ksv values by using a universally accepted Stern–Volmer equation [38]:(1) F0/F=1+Kqτ0[Q]=1+Ksv[Q] where F0 and F are the protein fluorescence intensities in the absence and the presence of quencher (compounds DB2, SC2 or YB2), respectively. Kq = Ksv/ τ0 . τ0 is the fluorescence lifetime of the fluorophore without the quencher ([…]). [Q] is the concentration of quencher. The Stern-Volmer plots of COX2 fluorescence quenching by compounds DB2, SC2 or YB2 are presented in Figure 5a, Figure 5b or Figure 5c, respectively. According to Table 1, the Ksv and Kq values for all three systems (COX2-DB2, COX2-SC2 and COX2-YB2) decreased with increasing temperature. Therefore, we considered that the quenching was static quenching. To further verify that the system was static quenching, dynamic quenching was assumed first.
For the static quenching, we can use the double logarithm equation to obtain the binding constant (KA) and the number of binding sites per protein (n):(2) lgF0−F/F=lgKA+nlg[Q]
There are four main kinds of non-covalent forces between drugs and proteins. These are electrostatic force, hydrogen bonding, hydrophobic force and van der Waals force. The kind of interaction between compounds DB2, SC2 or YB2 and COX2 can be obtained from thermodynamic parameters, including the free energy change (ΔG), enthalpy change (ΔH) and entropy change (ΔS) of the reaction. The three thermodynamic parameters can be obtained according to the published equations [42, 44]:(3) ΔG=−RTlnK (4) lnK2/K1=ΔH(1/T1−1/T2)×1/R (5) ΔG=ΔH−TΔS
(§1) The fluorescence intensity of the system was measured with a 1.0 cm quartz cell. COX2 protein was dissolved in PBS for a final concentration of 6.0 × 10^−8 mol∙L^−1. DB2, SC2 or YB2 stock solutions were prepared in singleton at 1.5 × 10^−3 mol∙L^−1 in PBS containing 0.1% DMSO. 2.0 mL COX2 solution was separately titrated by continuing additions of 10 μL compounds DB2, SC2 or YB2 solution). After incubation at 298 K or 310 K, fluorescence quenching spectra were recorded in the region 325-450 nm at a scan rate of 1200 nm∙min^−1. The local environment of Tyr and Trp residues was quite sensitive at 280 nm, so the excitation wavelength was set at this wavelength. Typically, 280 nm is also used to measure the changes in protein tertiary structure. The slit widths of emission and excitation were both fixed at 10 nm. To observe spectra behaviors of Tyr and Trp groups of COX2, the wavelength interval between the excitation and emission wavelengths (Δλ) was set as 15 nm and 60 nm, respectively. Three-dimensional fluorescence spectroscopy was obtained for an excitation range of 200–300 nm and an emission range of 325–400 nm. Appropriate buffer solutions, determined under the same operation conditions, were used as blanks. Each spectrum was recorded three times.

COX2 [2] = target: T1, COX2; test: Fluorescence resonance energy transfer between COX2 and compound; type: binding; conditions: for J (effective spectral overlap): COX2 emission vs compound absorption, each 5.0 × 10^−8 mol∙L^−1; for r (separation distance between COX2 and compound): κ^2 = 2/3, N = 1.336, φ = 0.15
Source text: The transfer of energy from the protein donor to the ligand acceptor is generally seen in strong protein–ligand complexes. In addition to divulging the binding activities, assessments of the energy transfer efficiency can reveal the distance between the ligand and the ligand binding site on the protein [47]. According to Förster theory, the efficiency depends not only on the orientation and distance of the molecules but also on the extent of overlap between the donor emission and acceptor absorption. The distance between the donor and acceptor must be in the 2 to 8 nm range [47, 48]. The overlaps of fluorescence emission spectrum of COX2 with absorption spectrum of compounds DB2, SC2 or YB2 are presented in Figure 5g–i, respectively. The energy transfer efficiency (E) from donor to acceptor was calculated by a widely used method:(6) E=R06/R06+r^6=F0−F/F0 (7) R06=8.79×10^−25κ^2N^−4φJ (8) J=∑^ F(λ)ε(λ)λ^4Δλ/∑^F(λ)Δλ
Here, r is the separation distance between the donor (COX2) and acceptor (DB2, SC2 or YB2). R0 is the Förster critical distance when E = 50%. κ^2 is the orientation space factor. N is the refractive index of medium surrounding the fluorophores. φ is the fluorescence quantum yield of the donor. J is overlap integral of the donor fluorescence emission spectrum and acceptor absorption spectrum. F(λ) is the fluorescence intensity of the protein at the wavelength λ, ε(λ) is the molar absorption coefficient of acceptor at λ. Using the values of κ^2 = 2/3, N = 1.336 and φ = 0.15 [49], J and r were calculated (Table 2).
as §1

SMILES	Ksv (Stern-Volmer quenching constant) (COX2 [1]; 298 K)	n (number of binding sites per protein) (COX2 [1]; 298 K)	ΔG (free energy change) (COX2 [1]; 298 K) [kJ/mol]	KA relative to the control compound (COX2 [1])	Kq (bimolecular quenching constant) (COX2 [1]; 298 K)	Kd (COX2 [1]; 298 K) [µM]	Ksv (Stern-Volmer quenching constant) (COX2 [1]; 310 K)	n (number of binding sites per protein) (COX2 [1]; 310 K)	ΔG (free energy change) (COX2 [1]; 310 K) [kJ/mol]	Kq (bimolecular quenching constant) (COX2 [1]; 310 K)	Kd (COX2 [1]; 310 K) [µM]	ΔH (enthalpy change) (COX2 [1]) [kJ/mol]	ΔS (entropy change) (COX2 [1]) [J∙K^−1]	J (effective spectral overlap) (COX2 [2])	r (separation distance between COX2 and compound) (COX2 [2]) [nm]
CCCCc1ccc(C(=O)c2c(Br)cc(O)c(O)c2O)cc1 [DB2]	1.43 ± 0.188 ×10^4 L∙mol^−1	1.10 ± 0.0208	-25.9 ± 0.280	approximately an order of magnitude larger	1.43 ± 0.188 ×10^12 L∙mol^−1∙S^−1	28.2	1.14 ± 0.380 ×10^4 L∙mol^−1	1.03 ± 0.0633	-24.6 ± 0.561	1.14 ± 0.380 ×10^12 L∙mol^−1∙S^−1	73.1	-61.6 ± 8.20	−120 ± 28.1	1.64 ×10^−13 cm^3∙L∙mol^−1	6.42
CC(C)(C)c1ccc(C(=O)c2c(Cl)cc(O)c(O)c2O)cc1 [SC2]	2.31 ± 0.988 ×10^4 L∙mol^−1	1.01 ± 0.0469	-25.0 ± 0.229	approximately an order of magnitude larger	2.31 ± 0.988 ×10^12 L∙mol^−1∙S^−1	41.7	2.07 ± 1.03 ×10^4 L∙mol^−1	1.02 ± 0.0731	-25.7 ± 0.599	2.07 ± 1.03 ×10^12 L∙mol^−1∙S^−1	45.7	-6.74 ± 9.11	61.2 ± 31.3	1.55 ×10^−13 cm^3∙L∙mol^−1	6.62
CC(C)Cc1ccc(C(=O)c2c(Br)cc(O)c(O)c2O)cc1 [YB2]	3.49 ± 1.69 ×10^4 L∙mol^−1	1.07 ± 0.0551	-27.4 ± 0.101	approximately an order of magnitude larger	3.49 ± 1.69 ×10^12 L∙mol^−1∙S^−1	15.7	2.58 ± 0.562 ×10^4 L∙mol^−1	1.07 ± 0.0306	-27.7 ± 0.318	2.58 ± 0.562 ×10^12 L∙mol^−1∙S^−1	21.5	-20.7 ± 6.48	22.6 ± 21.9	1.72 ×10^−13 cm^3∙L∙mol^−1	6.47
